System: RA patients
Assay: Total cholesterol determination, Study 2 (RA patients, monotherapy with Compound 1)
Assay type: in vivo, human
From the text: Randomized, double-blind, placebo-controlled, multicenter, phase IIb dose finding study of Compound 1 (dosed as a [Compound 1:HCl:3H2O]) administered for 24 weeks as monotherapy to subjects with moderately to severely active rheumatoid arthritis who have an inadequate response to methotrexate alone
Double-blind, placebo-controlled, monotherapy study in subjects with moderately to severely active RA who have an inadequate response to methotrexate (MTX) (oral or parenteral).
280 subjects randomized to one of 3 doses of Compound 1 (dosed as a [Compound 1:HCl:3H2O]) or to placebo, given once daily (q.d.).
Twelve weeks of treatment with Compound 1 (dosed as a [Compound 1:HCl:3H2O]) at 50 mg, 100 mg, or 200 mg q.d.; or placebo. At Week 12, all subjects on placebo and the subjects on the 50 mg dose who have not achieved 20% improvement in swollen joint count (SJC66) and tender joint count (TJC68) will be assigned to 100 mg q.d. in a blinded fashion and will continue treatment until Week 24. Subjects in the other groups will maintain their randomized treatment until Week 24.
This method is based on the determination of Δ^4 cholestenone after enzymatic cleavage of the cholesterol ester by cholesterol esterase, conversion of cholesterol by cholesterol oxidase, and subsequent measurement by the Trinder reaction of the hydrogen peroxide formed (Allain et al., 1974).
Cholesterol esters are cleaved by the action of cholesterol esterase to yield free cholesterol and fatty acids. Cholesterol oxidase then catalyzes the oxidation of cholesterol to cholest-4-en-3-one and hydrogen peroxide. In the presence of peroxidase, the hydrogen peroxide formed effects the oxidative coupling of phenol and 4-aminophenazone to form a red quinone-imine dye. The color intensity of the dye formed is directly proportional to the cholesterol concentration. It is determined by measuring the increase in absorbance.
Human serum and plasma samples cholesterol determination was done on a Roche/Hitachi Cobas c 701/702 system which automatically calculate the analyte concentration of each sample.

[1] = placebo switching to 100 mg q.d. at week 12, week 16
[2] = placebo switching to 100 mg q.d. at week 12, week 20
[3] = placebo switching to 100 mg q.d. at week 12, week 24

## O=C(Nc1nc2cccc(-c3ccc(CN4CCS(=O)(=O)CC4)cc3)n2n1)C1CC1 [Compound 1, cyclopropanecarboxylic acid {5-[4-(1,1-dioxo-thiomorpholin-4-ylmethyl)-phenyl]-[1,2,4]triazolo[1,5-a]pyridin-2yl}-amide]
200 mg q.d., week 4
  [total cholesterol] Mean percentage CFB - 24 weeks results: 9.35%
  [total cholesterol] Median percentage CFB - 24 weeks results: 7.39%
200 mg q.d., week 8
  [total cholesterol] Mean percentage CFB - 12 weeks results: 9.62%
  [total cholesterol] Mean percentage CFB - 24 weeks results: 9.62%
  [total cholesterol] Median percentage CFB - 24 weeks results: 9.01%
200 mg q.d., week 12
  [total cholesterol] Mean percentage CFB - 12 weeks results: 13.12%
  [total cholesterol] Mean percentage CFB - 24 weeks results: 13.12%
  [total cholesterol] Median percentage CFB - 24 weeks results: 11.96%
200 mg q.d., week 16
  [total cholesterol] Mean percentage CFB - 24 weeks results: 11.40%
  [total cholesterol] Median percentage CFB - 24 weeks results: 8.36%
200 mg q.d., week 20
  [total cholesterol] Mean percentage CFB - 24 weeks results: 11.67%
  [total cholesterol] Median percentage CFB - 24 weeks results: 11.04%
200 mg q.d., week 24
  [total cholesterol] Mean percentage CFB - 24 weeks results: 12.83%
  [total cholesterol] Median percentage CFB - 24 weeks results: 9.81%
Study 2 12 weeks results, 50 mg q.d., week 1
  [Total cholesterol] Median CFB: 0.100 mmol/L
Study 2 12 weeks results, 50 mg q.d., week 2
  [Total cholesterol] Median CFB: 0.000 mmol/L
Study 2 12 weeks results, 50 mg q.d., week 4
  [Total cholesterol] Median CFB: 0.000 mmol/L
Study 2 12 weeks results, 50 mg q.d., week 8
  [Total cholesterol] Median CFB: 0.250 mmol/L
Study 2 12 weeks results, 50 mg q.d., week 12
  [Total cholesterol] Median CFB: 0.140 mmol/L
Study 2 12 weeks results, 100 mg q.d., week 1
  [Total cholesterol] Median CFB: 0.100 mmol/L
Study 2 12 weeks results, 100 mg q.d., week 2
  [Total cholesterol] Median CFB: 0.140 mmol/L
Study 2 12 weeks results, 100 mg q.d., week 4
  [Total cholesterol] Median CFB: 0.265 mmol/L
Study 2 12 weeks results, 100 mg q.d., week 8
  [Total cholesterol] Median CFB: 0.250 mmol/L
Study 2 12 weeks results, 100 mg q.d., week 12
  [Total cholesterol] Median CFB: 0.350 mmol/L
Study 2 12 weeks results, 200 mg q.d., week 1
  [Total cholesterol] Median CFB: 0.260 mmol/L
Study 2 12 weeks results, 200 mg q.d., week 2
  [Total cholesterol] Median CFB: 0.330 mmol/L
Study 2 12 weeks results, 200 mg q.d., week 4
  [Total cholesterol] Median CFB: 0.390 mmol/L
Study 2 12 weeks results, 200 mg q.d., week 8
  [Total cholesterol] Median CFB: 0.400 mmol/L
Study 2 12 weeks results, 200 mg q.d., week 12
  [Total cholesterol] Median CFB: 0.560 mmol/L
Study 2 24 weeks results, 50 mg q.d. non responders switching to 100 mg q.d. at week 12, week 1
  [Total cholesterol] Median CFB: 0.150 mmol/L
Study 2 24 weeks results, 50 mg q.d. non responders switching to 100 mg q.d. at week 12, week 2
  [Total cholesterol] Median CFB: 0.100 mmol/L
Study 2 24 weeks results, 50 mg q.d. non responders switching to 100 mg q.d. at week 12, week 4
  [Total cholesterol] Median CFB: 0.350 mmol/L
Study 2 24 weeks results, 50 mg q.d. non responders switching to 100 mg q.d. at week 12, week 8
  [Total cholesterol] Median CFB: 0.140 mmol/L
Study 2 24 weeks results, 50 mg q.d. non responders switching to 100 mg q.d. at week 12, week 12
  [Total cholesterol] Median CFB: 0.330 mmol/L
Study 2 24 weeks results, 50 mg q.d. non responders switching to 100 mg q.d. at week 12, week 16
  [Total cholesterol] Median CFB: 0.540 mmol/L
Study 2 24 weeks results, 50 mg q.d. non responders switching to 100 mg q.d. at week 12, week 20
  [Total cholesterol] Median CFB: 0.280 mmol/L
Study 2 24 weeks results, 50 mg q.d. non responders switching to 100 mg q.d. at week 12, week 24
  [Total cholesterol] Median CFB: 0.550 mmol/L
Study 2 24 weeks results, 50 mg q.d. responders, week 1
  [Total cholesterol] Median CFB: 0.020 mmol/L
Study 2 24 weeks results, 50 mg q.d. responders, week 2
  [Total cholesterol] Median CFB: -0.040 mmol/L
Study 2 24 weeks results, 50 mg q.d. responders, week 4
  [Total cholesterol] Median CFB: -0.030 mmol/L
Study 2 24 weeks results, 50 mg q.d. responders, week 8
  [Total cholesterol] Median CFB: 0.350 mmol/L
Study 2 24 weeks results, 50 mg q.d. responders, week 12
  [Total cholesterol] Median CFB: 0.060 mmol/L
Study 2 24 weeks results, 50 mg q.d. responders, week 16
  [Total cholesterol] Median CFB: 0.165 mmol/L
Study 2 24 weeks results, 50 mg q.d. responders, week 20
  [Total cholesterol] Median CFB: 0.215 mmol/L
Study 2 24 weeks results, 50 mg q.d. responders, week 24
  [Total cholesterol] Median CFB: 0.250 mmol/L
Study 2 24 weeks results, 100 mg q.d., week 1
  [Total cholesterol] Median CFB: 0.100 mmol/L
Study 2 24 weeks results, 100 mg q.d., week 2
  [Total cholesterol] Median CFB: 0.140 mmol/L
Study 2 24 weeks results, 100 mg q.d., week 4
  [Total cholesterol] Median CFB: 0.265 mmol/L
Study 2 24 weeks results, 100 mg q.d., week 8
  [Total cholesterol] Median CFB: 0.250 mmol/L
Study 2 24 weeks results, 100 mg q.d., week 12
  [Total cholesterol] Median CFB: 0.350 mmol/L
Study 2 24 weeks results, 100 mg q.d., week 16
  [Total cholesterol] Median CFB: 0.400 mmol/L
Study 2 24 weeks results, 100 mg q.d., week 20
  [Total cholesterol] Median CFB: 0.400 mmol/L
Study 2 24 weeks results, 100 mg q.d., week 24
  [Total cholesterol] Median CFB: 0.445 mmol/L
Study 2 24 weeks results, 200 mg q.d., week 1
  [Total cholesterol] Median CFB: 0.260 mmol/L
Study 2 24 weeks results, 200 mg q.d., week 2
  [Total cholesterol] Median CFB: 0.330 mmol/L
Study 2 24 weeks results, 200 mg q.d., week 4
  [Total cholesterol] Median CFB: 0.390 mmol/L
Study 2 24 weeks results, 200 mg q.d., week 8
  [Total cholesterol] Median CFB: 0.400 mmol/L
Study 2 24 weeks results, 200 mg q.d., week 12
  [Total cholesterol] Median CFB: 0.560 mmol/L
Study 2 24 weeks results, 200 mg q.d., week 16
  [Total cholesterol] Median CFB: 0.410 mmol/L
Study 2 24 weeks results, 200 mg q.d., week 20
  [Total cholesterol] Median CFB: 0.490 mmol/L
Study 2 24 weeks results, 200 mg q.d., week 24
  [Total cholesterol] Median CFB: 0.565 mmol/L
Study 2 24 weeks results, placebo switching to 100 mg q.d. at week 12, week 16
  [Total cholesterol] Median CFB: 0.200 mmol/L
Study 2 24 weeks results, placebo switching to 100 mg q.d. at week 12, week 20
  [Total cholesterol] Median CFB: 0.220 mmol/L
Study 2 24 weeks results, placebo switching to 100 mg q.d. at week 12, week 24
  [Total cholesterol] Median CFB: 0.300 mmol/L
[1]
  [total cholesterol] Mean percentage CFB - 24 weeks results: 5.14%
  [total cholesterol] Median percentage CFB - 24 weeks results: 3.87%
[2]
  [total cholesterol] Mean percentage CFB - 24 weeks results: 7.27%
  [total cholesterol] Median percentage CFB - 24 weeks results: 5.09%
[3]
  [total cholesterol] Mean percentage CFB - 24 weeks results: 6.98%
  [total cholesterol] Median percentage CFB - 24 weeks results: 5.57%
